Here are results for 76 molecules from US20260373266A1, “PROTEIN DEGRADERS AND USES THEREOF” (KYMERA THERAPEUTICS, INC., priority 2022, published 2026).

Some results are limits rather than exact numbers.

T1 sequence (Q9Y4B6 1077-1390): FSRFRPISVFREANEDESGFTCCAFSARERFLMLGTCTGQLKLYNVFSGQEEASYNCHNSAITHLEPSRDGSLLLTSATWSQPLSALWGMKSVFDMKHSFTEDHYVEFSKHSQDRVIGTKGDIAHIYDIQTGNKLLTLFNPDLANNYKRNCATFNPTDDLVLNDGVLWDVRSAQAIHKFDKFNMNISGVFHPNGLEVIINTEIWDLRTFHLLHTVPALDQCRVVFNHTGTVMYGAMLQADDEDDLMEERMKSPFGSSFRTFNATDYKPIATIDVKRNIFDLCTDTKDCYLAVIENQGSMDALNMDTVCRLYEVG

One assay addresses T1, DCAF1 WD40 domain (residues 1077-1390) (Homo sapiens, UniProt Q9Y4B6).
T1 construct: DCAF1 WD40 domain (residues 1077-1390)
The assay is described as follows: DCAF1 binding assay by SPR (Biacore 8K+), DCAF1-3 KD. Particulars: 25 °C, read-out: DCAF1-3 SPR (KD). (In SPR one partner is held on a chip, and binding of the other changes the refractive index at the surface.)
`COCCN(C)CC1CCN(c2ccnc(N3CC[C@@H]4[C@H]3CCCN4c3cccc(F)c3)c2)CC1` [I-922]: the equilibrium dissociation constant (Kd) lay within 10 to 100 µM.
For the molecule `COc1ccc(F)c(-c2[nH]ncc2C(=O)N[C@@H](CC(N)=O)c2cccc(Cl)c2)c1` [I-249], the Kd is > 200 µM.
Regarding `CCCN(c1nccc(N2CCOCC2)n1)[C@@H]1CCCN(c2cccc(F)c2)C1` [I-44], the Kd was > 200 µM.
Still for that read-out and setting: next, `CCN(c1cc(N2CCOCC2)ncn1)[C@@H]1CCCN(c2cccc(F)c2)C1` [I-386]: > 200 µM.
For `Fc1ccccc1N1CCC[C@@H](Nc2cc(N3CCOCC3)ncn2)C1` [I-3], the Kd is > 200 µM.
For the molecule `Fc1cccc(N2CC(Nc3cc(N4CCOCC4)ncn3)C2)c1` [I-218], the Kd is > 200 µM.
On to `NC(=O)C[C@H](NC(=O)c1cn[nH]c1-c1ccccc1F)c1ccccc1Br` [I-581], for which the Kd fell in the range of 10 to 100 µM.
Same read-out and setting: in the case of `Cc1ccc(-c2[nH]ncc2C(=O)N[C@@H](CC(N)=O)c2cccc(Cl)c2)cc1` [I-103] it was < 10 µM; in that of `CCN(c1nccc(N2CCOCC2)n1)[C@@H]1CCCN(c2cccc(F)c2)C1` [I-42], > 200 µM; in that of `Cc1nc(N2CCC[C@@H](Nc3cc(N4CCOCC4)ccn3)C2)nc2ccccc12` [I-415], 10 to 100 µM.
Regarding `NC(=O)C[C@](CO)(NC(=O)c1c[nH]nc1-c1ccccc1F)c1cccc(Cl)c1` [I-253], the Kd was > 200 µM.
As for `NC(=O)C[C@@]1(c2cccc(Cl)c2)CN=C(c2c[nH]nc2-c2ccccc2F)N1` [I-191], the Kd is > 200 µM.
On the same count and under the same terms, next, `c1cc(N2CCCCC2)cc(N[C@@H]2CCC[C@H](C3CCCCC3)C2)n1` [I-751]: > 200 µM; `O=C(O)C1C(Nc2cc(N3CCOCC3)ccn2)CCCN1c1cccc(F)c1` (stereo not shown) [I-628]: 10 to 100 µM.
Consider `Fc1cccc(N2CCC[C@@H](Nc3cc(N4CCCCC4)ccn3)C2)c1` [I-503], for which the Kd was < 10 µM.
As to `NC(=O)CCc1cc(N2CCC[C@H]3[C@@H]2CCN3c2cc(N3CCCCC3)ccn2)ccc1F` [I-874], the Kd is < 10 µM.
Turning to `c1ccc2ncc(N3CCC[C@@H](Nc4cc(N5CCOCC5)ncn4)C3)cc2c1` [I-399], the equilibrium dissociation constant (Kd) is > 200 µM.
Still for that read-out and setting: next, `Cc1c(F)ccc(F)c1-c1c(C(=O)N[C@@H](CC(N)=O)c2cccc(Cl)c2)c[nH]c1C(=O)COCCOCCOCCOCCOCCN` [I-809]: < 10 µM.
Take `c1ccc2c(N3CCC[C@@H](Nc4nccc(N5CCOCC5)n4)C3)ccnc2c1` [I-35]: the Kd lay in the range of 10 to 100 µM.
The same measure, in the same setting: next, `CC(=O)N1CCN(c2ccnc(N3CC[C@@H]4[C@H]3CCCN4c3cccc(F)c3)c2)CC1` [I-948]: 10 to 100 µM.
Regarding `O=C(Nc1ccccc1)NC1CCCN(C(=O)N2CCC=C(F)C2)C1` (stereo not shown) [I-85], the Kd was > 200 µM.
On the same count and under the same terms, next, `Fc1cccc(N2CCC[C@@H](Nc3cccc(N4CCOCC4)c3)C2)c1` [I-380]: > 200 µM; `Fc1cccc(N2C[C@H](Nc3cc(N4CCOCC4)ncn3)C3CCC[C@H]2C3)c1` (stereo in doubt) [I-384]: > 200 µM.
For `Cc1c(F)ccc(F)c1-c1c(C(=O)N[C@@H](CC(N)=O)c2cccc(Cl)c2)cn(C)c1C(=O)c1ccc(C#CCOC2CCNCC2)cc1` [I-1003], the equilibrium dissociation constant (Kd) was < 10 µM.
For `NC(=O)C[C@H](NC(=O)CCc1nc2c(F)cccc2[nH]1)c1cccc(Cl)c1` [I-441], the Kd is > 200 µM.
On to `OCCC[C@@H]1C[C@@H]2[C@@H](CCCN2c2cccc(F)c2)N1c1cc(N2CCCCC2)ccn1` [I-821], for which the Kd is > 200 µM.
For `NC(=O)C[C@H](NC(=O)c1cn[nH]c1-c1ccccc1F)c1cccc(O)c1` [I-129], the equilibrium dissociation constant (Kd) was > 200 µM.
Regarding `Cc1cccc(F)c1-c1c(C(=O)N[C@@H](CC(N)=O)c2cccc(Cl)c2)c[nH]c1C(=O)c1ncccn1` [I-648], the dissociation constant (Kd) was < 10 µM.
Same read-out and setting: next, `CC(=O)Nc1ccc(N2CCC[C@@H]3[C@H]2CCN3c2cc(N3CCCCC3)ccn2)cc1F` [I-746]: 10 to 100 µM.
Regarding `Fc1cccc(N2CCC[C@@H](Nc3cc(N4CCOCC4)ncn3)C2)c1` [I-1], the Kd lay in the range of 100 to 200 µM.
As for `C=CC(=O)N1CC(c2n[nH]cc2C(=O)N[C@@H](CC(N)=O)c2cccc(Cl)c2)C1` [I-455], the Kd is > 200 µM.
Turning to `CS(=O)(=O)CCN(c1cc(N2CCOCC2)ccn1)[C@@H]1CCCN(c2cccc(F)c2)C1` [I-292], the dissociation constant Kd is > 200 µM.
Turning to `C=CC(=O)N1CCC[C@H](N(C)c2ccnc(N[C@@H]3CCCN(c4cccc(F)c4)C3)c2)C1` [I-481], the Kd is > 200 µM.
For the molecule `NC(=O)C[C@H](NC(=O)c1cn[nH]c1-c1cccnc1)c1cccc(Cl)c1` [I-127], the dissociation constant (Kd) lay in the range of 10 to 100 µM.
Turning to `Fc1cccc(N2CCC[C@@H]3[C@H]2CCCN3c2cc(N3CCCCC3)ccn2)c1` [I-703], the dissociation constant (Kd) is > 200 µM.
Take `Fc1cccc([C@H]2CCC[C@@H](Nc3cc(N4CCOCC4)ncn3)C2)c1` [I-182]: the dissociation constant (Kd) was > 200 µM.
The same measure, in the same setting: next, `COCCOCCc1[nH]cc(C(=O)N[C@@H](CC(N)=O)c2cccc(Cl)c2)c1-c1ccccc1F` [I-557]: < 10 µM; `Cc1c(F)ccc(F)c1-c1cn(C)cc1C(=O)N[C@@H](CC(N)=O)c1cccc(Cl)c1` [I-924]: < 10 µM; `Cn1cncc1N1CCC[C@@H](Nc2cc(N3CCOCC3)ccn2)C1` [I-773]: 10 to 100 µM.
The same measure, in the same setting: in the case of `CCC1CCCN(c2ccnc(N[C@@H]3CCCN(c4cccc(F)c4)C3)c2)C1` (stereo partly shown) [I-572] it was 10 to 100 µM.
Regarding `Fc1cccc(N2C3CC[C@H]2CC[C@H]3Nc2cc(N3CCOCC3)ccn2)c1` (stereo in doubt) [I-80], the dissociation constant Kd is > 200 µM.
As to `NC(=O)C[C@H](NC(=O)c1cn[nH]c1-c1ccc(O)cc1)c1cccc(Cl)c1` [I-333], the Kd was in the range of 10 to 100 µM.
`c1ccc2c(N3CCC[C@@H](Nc4nccc(N5CCOCC5)n4)C3)nccc2c1` [I-36]: the dissociation constant Kd was 10 to 100 µM.
Still for that read-out and setting: in the case of `NC(=O)C[C@H](NC(=O)c1cn[nH]c1-c1c(F)cccc1C(F)(F)F)c1cccc(Cl)c1` [I-630] it was < 10 µM.
Regarding `NC(=O)C[C@H](NC(=O)c1cnc(N)cc1-c1ccccc1F)c1cccc(Cl)c1` [I-589], the equilibrium dissociation constant (Kd) was > 200 µM.
For `Fc1cccc(N2CCC[C@@H](Nc3cc(N4CC5(CCC5)C4)ccn3)C2)c1` [I-577], the Kd is 10 to 100 µM.
Turning to `c1cc2ccnc(N3CCC[C@@H](Nc4cc(N5CCOCC5)ccn4)C3)c2cn1` [I-68], the Kd was in the range of 100 to 200 µM.
For `NC(=O)C[C@H](NC(=O)c1cn[nH]c1CC1CCCCC1)c1cccc(Cl)c1` [I-582], the Kd was < 10 µM.
On the same count and under the same terms, in the case of `COc1ncccc1-c1[nH]ncc1C(=O)N[C@@H](CC(N)=O)c1cccc(Cl)c1` [I-504] it was > 200 µM.
As for `CCCCCCC[C@H]1CCCN(c2ccnc(N3CC[C@@H]4[C@H]3CCCN4c3cccc(F)c3)c2)C1` [I-727], the Kd was > 200 µM.
Turning to `Cc1cccc(C(=O)c2[nH]cc(C(=O)N[C@@H](CC(N)=O)c3cccc(Cl)c3)c2-c2c(C)cccc2F)c1` [I-627], the dissociation constant Kd was < 10 µM.
In the case of `Cc1cccc(N2CCC[C@@H](Nc3cc(N4CCOCC4)ncn3)C2)c1` [I-5], the Kd was > 200 µM.
For the molecule `NC(=O)C[C@H](NC(=O)c1cn[nH]c1C1CCOCC1)c1ccccc1` [I-501], the dissociation constant (Kd) lay within 10 to 100 µM.
Take `C[C@@H]1CCCCN1c1ccnc(N[C@@H]2CCCN(c3cccc(F)c3)C2)c1` [I-568]: the equilibrium dissociation constant (Kd) was < 10 µM.
Regarding `OC[C@@H]1C[C@H](Nc2cc(N3CCCCC3)ccn2)CN(c2cccc(F)c2)C1` [I-1011], the equilibrium dissociation constant (Kd) was in the range of 10 to 100 µM.
Still for that read-out and setting: in the case of `Cc1ccc([C@H](CC(N)=O)NC(=O)c2cn[nH]c2-c2ccccc2F)cc1` [I-101] it was 10 to 100 µM.
On to `NCC(=O)NCc1ccc(N2CCCCC2)cc1N[C@@H]1CCCN(c2cccc(F)c2)C1` [I-982], for which the Kd is 10 to 100 µM.
Take `NC(=O)C[C@H](NC(=O)C1=C(c2c(F)cccc2F)CCNC1)c1cccc(Cl)c1` [I-550]: the dissociation constant (Kd) lay within 100 to 200 µM.
The same measure, in the same setting: next, `Oc1ccc2nc(N3CCC[C@@H](Nc4cc(N5CCOCC5)ccn4)C3)ccc2c1` [I-780]: 10 to 100 µM.
`NC[C@H]1CC[C@H](Nc2cc(N3CCCCC3)ccn2)CN1c1cccc(F)c1` [I-1021]: the Kd fell in the range of 10 to 100 µM.
The same measure, in the same setting: in the case of `O=C(O)CN(c1cc(N2CCOCC2)ccn1)[C@@H]1CCCN(c2cccc(F)c2)C1` [I-286] it was > 200 µM.
As for `NC(=O)C[C@H](NC(=O)c1c[nH]nc1-c1ccccc1O)c1cccc(Cl)c1` [I-229], the Kd was > 200 µM.
Still for that read-out and setting: next, `CN1CCN(c2cc(N[C@@H]3CCCN(c4cccc(F)c4)C3)ncn2)CC1` [I-374]: > 200 µM; `Cc1c(F)ccc(F)c1-c1[nH]ncc1C(=O)N[C@@H](c1cccc(Cl)c1)[C@H]1CCOC1` [I-965]: 100 to 200 µM.
The same measure, in the same setting: next, `Cc1cc(CCCOCCOCCOCCOCCOCCNC(=O)C[C@@H]2N=C(c3ccc(Cl)cc3)c3c(sc(C)c3C)-n3c(C)nnc32)cc(F)c1-c1c(C(=O)N[C@@H](CC(N)=O)c2cccc(Cl)c2)c[nH]c1C#N` [I-1051]: < 10 µM; `C[S+]([O-])CN(c1cc(N2CCCOC2)ccn1)[C@H]1CCCN(c2cccc(F)c2)C1` (stereo partly shown) [I-539]: 10 to 100 µM.
`CCc1cccc([C@@H](CC(N)=O)NC(=O)c2cn[nH]c2-c2ccccc2F)c1` [I-639]: the Kd is 100 to 200 µM.
For the molecule `Oc1c(CN2CCCCC2)cccc1[C@@H]1CCCN(c2cccc(F)c2)C1` [I-730], the Kd was > 200 µM.
On the same count and under the same terms, in the case of `O=C(N[C@H](c1cccc(Cl)c1)[C@@H]1CCCNC1=O)c1c[nH]nc1-c1ccccc1F` [I-195] it was > 200 µM; in that of `Fc1cccc(N2CCC[C@@H](Cc3cc(N4CCOCC4)[nH]n3)C2)c1` [I-631], > 200 µM; in that of `C=CC(=O)NC1CCCN(c2ccnc(N[C@@H]3CCCN(c4cccc(F)c4)C3)c2)C1` (stereo partly shown) [I-454], 100 to 200 µM.
For the molecule `Cc1cccc([C@H](CC(N)=O)NC(=O)c2cn[nH]c2-c2ccccc2F)n1` [I-143], the Kd is > 200 µM.
As for `Fc1cccc(N2CC[C@@H](Nc3cc(N4CCOCC4)ccn3)C2)c1` [I-198], the dissociation constant (Kd) is 10 to 100 µM.
Turning to `Cc1ccc(CCCOCCOCCOCCOCCOCCN)c(F)c1-c1c(C(=O)N[C@@H](CC(N)=O)c2cccc(Cl)c2)c[nH]c1C#N` [I-978], the Kd was < 10 µM.
`Cc1cn2cc(N3CCC[C@@H](Nc4cc(N5CCOCC5)ccn4)C3)ccc2n1` [I-763]: the dissociation constant (Kd) lay in the range of 10 to 100 µM.

Still in this assay, the particulars now being: DCAF1-3 SPR (KD), 25 °C.
In the case of `CCCCN(c1nccc(N2CCOCC2)n1)[C@@H]1CCCN(c2cccc(F)c2)C1` [I-43], the dissociation constant Kd was > 200 µM.

Broadly, the Kd is the constant that tells how readily two partners part at equilibrium.
